Reference: ChEMBL document CHEMBL4229543, “Squaramides as novel class I and IIB histone deacetylase inhibitors for topical treatment of cutaneous t-cell lymphoma” (Bioorg Med Chem Lett, 2018)
In brackets after ≈: the same amount, converted by molar mass.

How the values were obtained:
[1] = Solubility in pH 7.4 phosphate buffer solution at 100 uM after 24 hrs by HPLC method; assay type: physicochemical
[2] = target: T1, NAD-dependent protein deacetylase sirtuin-7 (Homo sapiens, UniProt Q9NRC8); assay: Inhibition of SIRT7 (unknown origin)
T1 sequence (Q9NRC8 whole entry): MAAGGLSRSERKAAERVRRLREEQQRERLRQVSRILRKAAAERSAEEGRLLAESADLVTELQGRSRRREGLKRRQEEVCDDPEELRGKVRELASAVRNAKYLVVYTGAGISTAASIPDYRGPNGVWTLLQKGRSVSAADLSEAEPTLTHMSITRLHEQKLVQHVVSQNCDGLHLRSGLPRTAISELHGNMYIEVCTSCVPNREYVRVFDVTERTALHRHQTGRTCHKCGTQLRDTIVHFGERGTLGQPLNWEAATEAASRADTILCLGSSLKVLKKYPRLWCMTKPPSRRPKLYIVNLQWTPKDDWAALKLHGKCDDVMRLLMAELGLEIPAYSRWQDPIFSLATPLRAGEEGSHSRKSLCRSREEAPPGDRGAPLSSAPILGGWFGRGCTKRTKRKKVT

HuT78 = assay: Pro-apoptotic activity in human HUT78 cells after 18 hrs by caspase-Glo 3/7 assay; assay type: functional, cell-based; details: HuT78, 18 h
[3] = target: T2, NAD-dependent protein deacetylase sirtuin-2 (Homo sapiens, UniProt Q8IXJ6); assay: Inhibition of human recombinant SIRT2 using fluoro-lysine sirtuin 2 deacetylase substrate after 60 mins by fluorimetrc method
T2 sequence (Q8IXJ6 whole entry): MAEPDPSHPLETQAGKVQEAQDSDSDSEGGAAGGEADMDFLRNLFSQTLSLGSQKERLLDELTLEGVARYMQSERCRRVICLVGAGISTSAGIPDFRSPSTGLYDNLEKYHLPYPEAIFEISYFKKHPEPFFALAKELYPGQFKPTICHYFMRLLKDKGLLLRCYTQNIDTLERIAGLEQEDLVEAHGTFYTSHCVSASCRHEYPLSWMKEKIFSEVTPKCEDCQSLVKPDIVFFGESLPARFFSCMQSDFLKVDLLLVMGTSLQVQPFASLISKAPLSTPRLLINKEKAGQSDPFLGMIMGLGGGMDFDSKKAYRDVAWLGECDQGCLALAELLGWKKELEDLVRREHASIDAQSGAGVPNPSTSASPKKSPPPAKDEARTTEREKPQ

[4] = target: T3, NAD-dependent protein deacetylase sirtuin-3, mitochondrial (Homo sapiens, UniProt Q9NTG7); assay: Inhibition of human recombinant SIRT3 using fluoro-lysine sirtuin 2 deacetylase substrate after 45 mins by fluorimetrc method
T3 sequence (Q9NTG7 whole entry): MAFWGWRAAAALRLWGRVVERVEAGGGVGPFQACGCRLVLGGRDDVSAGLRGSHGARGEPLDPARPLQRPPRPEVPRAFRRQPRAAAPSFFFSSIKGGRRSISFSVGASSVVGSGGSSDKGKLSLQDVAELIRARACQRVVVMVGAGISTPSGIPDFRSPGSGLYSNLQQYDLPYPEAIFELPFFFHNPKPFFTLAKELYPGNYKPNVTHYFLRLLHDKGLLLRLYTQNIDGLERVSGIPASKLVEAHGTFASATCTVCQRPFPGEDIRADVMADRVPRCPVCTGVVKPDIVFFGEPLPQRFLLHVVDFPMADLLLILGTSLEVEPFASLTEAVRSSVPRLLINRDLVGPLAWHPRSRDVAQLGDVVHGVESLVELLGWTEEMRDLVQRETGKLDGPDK

[5] = Clearance in human hepatocytes assessed per million cells at 1 uM after 5 to 90 mins by LC-MS/MS analysis; assay type: ADME, cell-based, Hepatocyte; details: read-out: CLH
[6] = Solubility in PG/EtOH (96%) at 30 mg/mL after 24 hrs by UV-spectrometric method; assay type: physicochemical; details: PG/EtOH (96%)
[7] = target: T4, NAD-dependent protein deacetylase sirtuin-1 (Homo sapiens, UniProt Q96EB6); assay: Inhibition of human recombinant SIRT1 using fluorogenic HDAC substrate after 20 mins by fluorimetrc method
T4 sequence (Q96EB6 whole entry): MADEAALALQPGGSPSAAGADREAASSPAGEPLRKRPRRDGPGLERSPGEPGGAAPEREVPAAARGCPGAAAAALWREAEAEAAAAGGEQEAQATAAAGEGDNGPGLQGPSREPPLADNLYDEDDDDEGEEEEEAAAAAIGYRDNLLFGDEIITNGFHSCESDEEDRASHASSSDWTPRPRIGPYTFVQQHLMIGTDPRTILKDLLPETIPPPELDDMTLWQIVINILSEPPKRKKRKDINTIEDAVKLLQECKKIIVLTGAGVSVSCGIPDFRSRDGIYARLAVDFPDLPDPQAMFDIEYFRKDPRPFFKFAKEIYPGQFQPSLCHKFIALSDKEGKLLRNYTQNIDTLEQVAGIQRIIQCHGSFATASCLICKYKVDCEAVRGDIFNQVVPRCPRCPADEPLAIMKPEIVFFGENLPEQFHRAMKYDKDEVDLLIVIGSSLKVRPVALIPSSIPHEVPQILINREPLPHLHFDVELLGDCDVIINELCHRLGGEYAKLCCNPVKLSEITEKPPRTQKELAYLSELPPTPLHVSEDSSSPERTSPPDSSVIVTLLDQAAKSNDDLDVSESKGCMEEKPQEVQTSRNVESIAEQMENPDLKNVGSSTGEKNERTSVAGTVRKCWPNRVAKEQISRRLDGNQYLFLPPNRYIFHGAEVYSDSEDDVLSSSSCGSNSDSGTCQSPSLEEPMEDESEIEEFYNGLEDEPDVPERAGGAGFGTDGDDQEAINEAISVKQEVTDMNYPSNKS

[8] = target: T5, Polyamine deacetylase HDAC10 (Homo sapiens, UniProt Q969S8); assay: Inhibition of human recombinant HDAC10 using fluorogenic HDAC substrate after 45 mins by fluorimetrc method
T5 sequence (Q969S8 whole entry): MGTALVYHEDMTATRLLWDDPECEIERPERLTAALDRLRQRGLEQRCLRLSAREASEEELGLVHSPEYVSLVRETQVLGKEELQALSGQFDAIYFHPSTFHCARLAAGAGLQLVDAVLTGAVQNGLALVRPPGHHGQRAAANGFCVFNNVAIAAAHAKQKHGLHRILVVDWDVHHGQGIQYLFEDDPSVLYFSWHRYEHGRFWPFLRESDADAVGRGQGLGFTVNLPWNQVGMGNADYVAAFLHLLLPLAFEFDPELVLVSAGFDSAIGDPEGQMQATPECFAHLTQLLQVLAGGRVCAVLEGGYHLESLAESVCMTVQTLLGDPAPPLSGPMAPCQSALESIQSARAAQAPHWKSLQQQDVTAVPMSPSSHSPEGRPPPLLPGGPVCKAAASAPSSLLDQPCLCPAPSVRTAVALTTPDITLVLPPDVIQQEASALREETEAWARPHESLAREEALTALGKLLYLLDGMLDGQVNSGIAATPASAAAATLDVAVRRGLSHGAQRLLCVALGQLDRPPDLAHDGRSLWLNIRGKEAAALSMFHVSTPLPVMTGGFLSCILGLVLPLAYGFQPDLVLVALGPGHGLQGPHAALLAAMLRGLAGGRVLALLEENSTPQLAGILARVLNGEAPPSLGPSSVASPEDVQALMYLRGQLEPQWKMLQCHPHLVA

Histone deacetylase 5 = Histone deacetylase 5 (Homo sapiens, UniProt Q9UQL6); assay: Inhibition of human recombinant HDAC5 using fluorogenic HDAC substrate class 2a after 30 mins by fluorimetrc method
Chain of Histone deacetylase 5 (Q9UQL6 whole entry): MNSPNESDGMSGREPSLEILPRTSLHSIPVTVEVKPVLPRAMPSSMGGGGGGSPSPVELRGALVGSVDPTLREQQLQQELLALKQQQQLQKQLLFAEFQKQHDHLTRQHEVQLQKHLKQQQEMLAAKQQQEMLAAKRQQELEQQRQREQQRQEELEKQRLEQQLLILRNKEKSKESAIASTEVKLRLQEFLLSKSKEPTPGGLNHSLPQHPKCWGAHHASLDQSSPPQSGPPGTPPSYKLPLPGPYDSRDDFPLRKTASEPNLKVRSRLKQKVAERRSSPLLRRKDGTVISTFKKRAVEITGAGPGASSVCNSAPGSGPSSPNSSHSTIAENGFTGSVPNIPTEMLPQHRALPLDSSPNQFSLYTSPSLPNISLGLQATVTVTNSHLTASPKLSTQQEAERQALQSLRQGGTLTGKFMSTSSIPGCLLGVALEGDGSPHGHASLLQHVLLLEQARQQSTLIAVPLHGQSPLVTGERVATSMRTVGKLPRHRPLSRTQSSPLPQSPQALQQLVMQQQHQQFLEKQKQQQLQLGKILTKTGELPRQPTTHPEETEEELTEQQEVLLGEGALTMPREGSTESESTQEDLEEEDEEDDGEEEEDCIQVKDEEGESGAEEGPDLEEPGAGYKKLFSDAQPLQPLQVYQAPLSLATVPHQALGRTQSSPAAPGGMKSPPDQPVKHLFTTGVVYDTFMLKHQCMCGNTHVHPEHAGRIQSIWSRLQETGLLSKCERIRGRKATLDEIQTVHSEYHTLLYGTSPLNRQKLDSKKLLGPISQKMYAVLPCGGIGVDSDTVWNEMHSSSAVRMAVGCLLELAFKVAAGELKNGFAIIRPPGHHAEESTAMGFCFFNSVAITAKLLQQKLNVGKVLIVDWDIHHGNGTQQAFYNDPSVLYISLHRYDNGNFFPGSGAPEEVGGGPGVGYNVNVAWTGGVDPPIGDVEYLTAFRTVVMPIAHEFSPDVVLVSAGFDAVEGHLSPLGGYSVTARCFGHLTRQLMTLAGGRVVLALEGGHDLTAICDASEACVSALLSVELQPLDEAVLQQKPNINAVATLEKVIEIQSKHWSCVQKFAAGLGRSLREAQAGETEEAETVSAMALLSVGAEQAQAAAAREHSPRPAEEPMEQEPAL

Histone deacetylase 9 = Histone deacetylase 9 (Homo sapiens, UniProt Q9UKV0); assay: Inhibition of human recombinant HDAC9 using fluorogenic HDAC substrate class 2a after 30 mins by fluorimetrc method
Chain of Histone deacetylase 9 (Q9UKV0 whole entry): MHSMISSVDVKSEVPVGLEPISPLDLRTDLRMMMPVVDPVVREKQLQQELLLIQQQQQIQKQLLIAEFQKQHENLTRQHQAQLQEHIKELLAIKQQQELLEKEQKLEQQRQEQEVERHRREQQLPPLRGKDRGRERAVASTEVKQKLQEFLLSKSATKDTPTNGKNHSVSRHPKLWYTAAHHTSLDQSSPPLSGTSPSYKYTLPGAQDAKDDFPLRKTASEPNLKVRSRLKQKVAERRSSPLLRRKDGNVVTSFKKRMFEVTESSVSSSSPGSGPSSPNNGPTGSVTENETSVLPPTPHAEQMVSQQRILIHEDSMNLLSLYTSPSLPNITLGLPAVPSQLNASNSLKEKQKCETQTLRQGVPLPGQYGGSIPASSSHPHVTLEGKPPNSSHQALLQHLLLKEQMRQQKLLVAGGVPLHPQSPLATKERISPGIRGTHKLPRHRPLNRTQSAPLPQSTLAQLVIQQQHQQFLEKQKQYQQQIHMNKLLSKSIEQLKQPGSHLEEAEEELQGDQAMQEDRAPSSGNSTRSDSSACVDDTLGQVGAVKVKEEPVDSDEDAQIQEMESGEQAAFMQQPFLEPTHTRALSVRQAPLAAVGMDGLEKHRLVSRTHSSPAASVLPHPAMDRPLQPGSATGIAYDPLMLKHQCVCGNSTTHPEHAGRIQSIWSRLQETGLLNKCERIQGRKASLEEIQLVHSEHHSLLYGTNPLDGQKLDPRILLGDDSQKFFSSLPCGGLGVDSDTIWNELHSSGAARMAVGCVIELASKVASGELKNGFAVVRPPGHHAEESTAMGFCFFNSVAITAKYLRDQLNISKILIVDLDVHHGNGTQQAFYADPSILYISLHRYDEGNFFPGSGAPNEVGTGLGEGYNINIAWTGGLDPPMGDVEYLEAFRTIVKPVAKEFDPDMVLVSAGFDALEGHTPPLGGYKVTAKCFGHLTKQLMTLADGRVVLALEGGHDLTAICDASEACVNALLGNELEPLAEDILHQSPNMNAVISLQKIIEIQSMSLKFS

| solubility at 24 h, 100 µM ([1]; phosphate buffer, pH 7.4) [µM] | Ki [2] [µM] | EC50 (HuT78) [nM] | Ki [3] [µM] | Ki [4] [µM] | hepatocyte CLint at 1 µM [5] [µL/min/1e6 cells] | solubility at 24 h [6] [mM] | Ki [7] [µM] | solubility ([1]; buffer, pH 7.4, 24 h, 100 µM) [mM] | Ki [8] [nM] | Ki (Histone deacetylase 5) [nM] | Ki (Histone deacetylase 9) [nM] | SMILES |
| --- | --- | --- | --- | --- | --- | --- | --- | --- | --- | --- | --- | --- |
| 69 (≈ 24.1 µg/mL) | > 10 | 4.3 | > 10 | > 10 | 8.5 | 20 (≈ 6990 µg/mL) | > 10 | – | – | – | – | Cc1[nH]c2ccccc2c1CCNCc1ccc(/C=C/C(=O)NO)cc1 [PANOBINOSTAT] |
| – | > 10 | 6.5 | > 10 | > 10 | 9.8 | 9.1 (≈ 3590 µg/mL) | > 10 | > 0.097 | 4.4 | 4.3 | 5.3 | Cn1cc(CNCC2CCN(c3ncc(C(=O)NO)cn3)CC2)c2ccccc21 [QUISINOSTAT] |
